Data from ChEMBL document CHEMBL5523682, “The formyl peptide receptors FPR1 and FPR2 as targets for inflammatory disorders: recent advances in the development of small-molecule agonists” (Eur J Med Chem, 2024).

Experiments:
[1] = target: T1, N-formyl peptide receptor 2 (Homo sapiens, UniProt P25090); assay: Agonist activity at human FPR2 expressed in HL-60 cells assessed as increase in calcium mobilization by FLIPR analysis; assay type: functional, cell-based
T1 sequence (P25090 whole entry): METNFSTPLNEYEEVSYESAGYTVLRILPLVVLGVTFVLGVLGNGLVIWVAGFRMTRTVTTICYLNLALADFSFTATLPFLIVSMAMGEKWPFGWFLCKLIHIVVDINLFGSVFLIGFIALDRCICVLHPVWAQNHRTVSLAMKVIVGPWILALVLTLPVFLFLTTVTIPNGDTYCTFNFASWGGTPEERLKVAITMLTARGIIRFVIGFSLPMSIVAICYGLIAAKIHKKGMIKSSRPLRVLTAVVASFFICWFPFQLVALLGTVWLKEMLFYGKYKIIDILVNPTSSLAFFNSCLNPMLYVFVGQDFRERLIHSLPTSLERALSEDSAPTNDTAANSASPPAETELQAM

fMet-Leu-Phe receptor [2] = target: T2, fMet-Leu-Phe receptor (Homo sapiens, UniProt P21462); assay: Agonist activity at human FPR1 expressed in HL-60 cells assessed as increase in calcium mobilization by FLIPR analysis; assay type: functional, cell-based
T2 sequence (P21462 whole entry): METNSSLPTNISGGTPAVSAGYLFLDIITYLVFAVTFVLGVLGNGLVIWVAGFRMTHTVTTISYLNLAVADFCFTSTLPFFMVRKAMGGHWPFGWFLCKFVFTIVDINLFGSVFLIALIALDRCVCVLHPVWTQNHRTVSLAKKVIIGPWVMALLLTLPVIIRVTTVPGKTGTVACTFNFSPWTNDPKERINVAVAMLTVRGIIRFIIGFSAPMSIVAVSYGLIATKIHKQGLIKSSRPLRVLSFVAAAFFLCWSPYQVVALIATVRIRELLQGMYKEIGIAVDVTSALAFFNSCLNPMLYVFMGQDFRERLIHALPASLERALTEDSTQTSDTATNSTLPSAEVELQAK

Homo sapiens = species: Homo sapiens; assay: Selectivity ratio of EC50 for agonist activity at human FPR1 transfected in CHO cells to EC50 for agonist activity at human FPR2 transfected in CHO cells; assay type: cell-based
[3] = target: T1, N-formyl peptide receptor 2; assay: Agonist activity at FPR2 (unknown origin) expressed in CHO cells by cAMP assay; assay type: functional, cell-based
[4] = target: T1, N-formyl peptide receptor 2; assay: Agonist activity at FPR2 (unknown origin) transfected in CHO cells by cAMP assay; assay type: functional, cell-based
[5] = target: T1, N-formyl peptide receptor 2; assay: Agonist activity at FPR2 (unknown origin) in HEK293 cells; assay type: functional, cell-based
fMet-Leu-Phe receptor [6] = target: T2, fMet-Leu-Phe receptor; assay: Agonist activity at FPR1 (unknown origin) in HEK293 cells; assay type: functional, cell-based
[7] = target: T1, N-formyl peptide receptor 2; assay: Agonist activity at human FPR2; assay type: functional
[8] = target: T3, Formyl peptide receptor 2 (Mus musculus, UniProt O88536); assay: Agonist activity at mouse FPR2
T3 sequence (O88536 whole entry): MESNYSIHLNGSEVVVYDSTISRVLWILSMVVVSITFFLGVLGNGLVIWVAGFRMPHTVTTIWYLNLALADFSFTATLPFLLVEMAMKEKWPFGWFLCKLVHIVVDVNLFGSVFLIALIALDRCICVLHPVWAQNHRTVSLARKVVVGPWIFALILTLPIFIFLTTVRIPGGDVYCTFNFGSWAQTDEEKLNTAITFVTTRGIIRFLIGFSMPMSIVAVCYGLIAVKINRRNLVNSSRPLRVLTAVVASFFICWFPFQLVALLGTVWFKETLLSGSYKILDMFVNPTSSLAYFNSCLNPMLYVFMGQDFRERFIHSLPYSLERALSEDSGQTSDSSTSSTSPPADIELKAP

fMet-Leu-Phe receptor [9] = target: T4, fMet-Leu-Phe receptor (Mus musculus, UniProt P33766); assay: Agonist activity at mouse FPR1; assay type: functional
T4 sequence (P33766 whole entry): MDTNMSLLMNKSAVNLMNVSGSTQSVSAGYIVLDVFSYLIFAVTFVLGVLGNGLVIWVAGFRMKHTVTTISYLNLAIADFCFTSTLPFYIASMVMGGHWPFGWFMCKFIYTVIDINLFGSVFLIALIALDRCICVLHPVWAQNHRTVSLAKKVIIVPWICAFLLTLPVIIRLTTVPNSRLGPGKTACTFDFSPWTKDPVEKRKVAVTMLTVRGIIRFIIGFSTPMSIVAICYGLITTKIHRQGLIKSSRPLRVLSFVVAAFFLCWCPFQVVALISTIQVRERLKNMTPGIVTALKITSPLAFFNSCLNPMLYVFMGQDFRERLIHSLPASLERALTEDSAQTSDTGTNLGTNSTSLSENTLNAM

fMet-Leu-Phe receptor [10] = target: T2, fMet-Leu-Phe receptor; assay: Agonist activity at FPR1 (unknown origin) expressed in CHO cells by cAMP assay; assay type: functional, cell-based
[11] = target: T1, N-formyl peptide receptor 2; assay: Agonist activity at human FPR2 expressed in HL-60 cells assessed as inhibition of WKYMVM-induced calcium mobilization; assay type: functional, cell-based
fMet-Leu-Phe receptor [12] = target: T2, fMet-Leu-Phe receptor; assay: Agonist activity at human FPR1 transfected in CHO cells by cAMP assay; assay type: functional, cell-based

Compound: COc1cccc(-c2csc(=O)n2CC(=O)Nc2ccc(Br)cc2)c1
- EC50 ([1]; hl-60): 230 nM
- EC50 (fMet-Leu-Phe receptor [2]; hl-60): 280 nM

Compound: COc1cc(F)c(-c2c(NC(=O)c3ccc(OC(F)F)cc3)c(=O)n(-c3ccccc3)n2C)c(F)c1
- Ratio EC50 (Homo sapiens): 200

Compound: COc1ccc([C@H]2CN(Cc3cnn(S(C)(=O)=O)c3)CC[C@@H]2NC(=O)Nc2ccc(Cl)cc2)cc1 (racemic)
- EC50 [3]: 0.09 nM

Compound: CCOC(=O)[C@H]1C2CCC([C@H]1C(=O)Nc1ccc(Br)cc1)C21CC1 (stereo partly specified)
- EC50 [4]: 1400 nM

Compound: COc1ccc(-n2c(-c3ccccc3)cnc2NC(=O)c2ccc(OC(F)F)cc2)cc1
- EC50 [5]: 3 nM
- EC50 (fMet-Leu-Phe receptor [6]): 0.038 µM

Compound: CC/C=C\C[C@@H](O)/C=C/C=C\C[C@@H](O)/C=C/C=C/C=C\[C@@H](O)CCC(=O)O
- EC50 [7]: 1.2 nM

Compound: CSc1ccc(NC(=O)Nc2ccc3c(c2)C(=O)N(CCCN)C(C)C3)cc1 (stereo unspecified)
- EC50 [8]: 15 nM

Compound: CCP(=O)(CC)c1ccccc1-c1ccc(N2CC[C@@H](NC(=O)Nc3ccc(Cl)cc3F)C2=O)c(F)c1F
- Ratio EC50 (Homo sapiens): 350

Compound: Cc1ccc(C2(NC(=O)[C@@H]3C4CCC([C@H]3C(=O)NCCCCN3CCCC3)C43CC3)CC2)cc1 (stereo partly specified)
- EC50 [5]: 4 nM

Compound: CS(=N)(=O)c1ccccc1-c1ccc(N2CC[C@@H](NC(=O)Nc3ccc(Cl)cc3F)C2=O)c(F)c1F (stereo partly specified)
- Ratio EC50 (Homo sapiens): 82

Compound: CSCC[C@H](NC=O)C(=O)N[C@@H](CC(C)C)C(=O)N[C@@H](Cc1ccccc1)C(=O)O
- EC50 (fMet-Leu-Phe receptor [9]): 23 µM

Compound: COc1cc(F)c([C@H]2CC(=O)NC[C@@H]2NC(=O)Nc2ccc(Cl)cc2)c(F)c1 (racemic)
- EC50 (fMet-Leu-Phe receptor [10]): 1000 nM
- EC50 [3]: < 1 nM

Compound: O=C(CN1C(=O)C2C(C1=O)C1CCC2C12CC2)Nc1ccc(Br)cc1 (stereo unspecified)
- EC50 [4]: 120 nM

Compound: Cc1ccc(NC(=O)N[C@@H]2CCCN(c3ccc(-c4ccccc4C(N)=O)cc3)C2=O)cc1
- EC50 [3]: < 5 nM

Compound: H-AKKVFKRLEKLFSKIQNDK-OH
- EC50 [11]: 300 nM

Compound: COc1ccc(C2(CNC(=O)[C@@H](Cc3c[nH]c4ccccc34)NC(=O)Nc3ccc([N+](=O)[O-])cc3)CCCCC2)nc1
- EC50 (fMet-Leu-Phe receptor [2]): 23 nM

Compound: O=C(CN1CCN(c2ccc(Cl)cc2)CC1)Nc1ccc(Br)cc1
- EC50 [5]: 2100 nM

Compound: COCCN1CC[C@H](NC(=O)Nc2ccc(Cl)cc2)[C@@H](c2c(F)cc(OC)cc2F)C1 (racemic)
- EC50 (fMet-Leu-Phe receptor [10]): 1000 nM
- EC50 [3]: < 1 nM

Compound: CS(=O)(=O)Nc1ccccc1-c1ccc(N2CC[C@@H](NC(=O)Nc3ccc(Cl)cc3F)C2=O)c(F)c1F
- Ratio EC50 (Homo sapiens): 340

Compound: C[C@H]1CC(c2ccccc2)=NN(CC(=O)Nc2ccc(Br)cc2)C1=O
- EC50 [1]: 11000 nM
- EC50 (fMet-Leu-Phe receptor [2]): 20000 nM

Compound: CCCc1cn(-c2cccc(OC)c2)c(=O)n(CC(=O)Nc2ccc(Br)cc2)c1=O
- EC50 [1]: 2400 nM
- EC50 (fMet-Leu-Phe receptor [2]): 3300 nM

Compound: COC(=O)c1ccc(NC(=O)CSc2nc3cc(OC)ccc3[nH]2)cc1
- EC50 (fMet-Leu-Phe receptor [6]): 4.7 µM

Compound: CP(C)(=O)c1ccccc1-c1ccc(N2CC[C@@H](NC(=O)Nc3ccc(Cl)cc3F)C2=O)c(F)c1F
- Ratio EC50 (Homo sapiens): 490

Compound: COC(=O)c1cccc(-n2c(=O)c(NC(=O)c3ccc(OC(F)F)cc3)c(-c3c(F)cc(OC)cc3F)n2C)c1
- Ratio EC50 (Homo sapiens): 1

Compound: COc1cc(-n2c(=O)c(NC(=O)c3ccc(OC(F)F)cc3)c(-c3c(F)cc(OC)cc3F)n2C)cc(C(F)(F)F)c1
- Ratio EC50 (Homo sapiens): > 1300
- EC50 (fMet-Leu-Phe receptor [12]): > 10 nM

Compound: COc1ccc(NC(=O)CSc2nc3cc(OC)ccc3[nH]2)cc1
- EC50 [5]: 15 nM
- EC50 (fMet-Leu-Phe receptor [6]): 3.7 µM

Compound: O=C(Nc1ccc(Cl)cc1F)N[C@@H]1CCN(c2ccc(-c3ccccc3F)c(F)c2F)C1=O
- Ratio EC50 (Homo sapiens): 12

Compound: NC(=O)c1ccccc1-c1ccc(N2CCC[C@H](NC(=O)Nc3ccc(Cl)cc3)C2=O)cc1
- EC50 [3]: 5 nM
